Test results reported in paper PMC9048505 (RSC Advances, 2020).

What was measured:
MCF-7 = experiment: In vitro anti-proliferative activity, MTT assay, MCF-7; format: cell-based, human; conditions: for IC50: Homo sapiens, MCF7, MTT, 24 h treatment, mean ± S.D. of three separate experiments
Experimental: (§1) The cells were obtained from ATCC (American Type Culture Collection) via the Holding company for biological products and vaccines (VACSERA) (Cairo, Egypt). […] After incubation period, the cell lines were treated with different concentration of the synthesized compounds and incubated for 24 h. After treatment by 24 h, 20 μL of MTT solution (5 mg mL^−1) was added and incubated for 4 h. Dimethyl sulfoxide (100 μL) was added into each well to dissolve the formed purple formazan. […] The relative cell viability in percentage was calculated as (A570 of treated samples/A570 of untreated sample) X 100.

HepG-2 = experiment: In vitro anti-proliferative activity, MTT assay, HepG-2; format: cell-based, human; conditions: for IC50: Homo sapiens, HepG2, MTT, 24 h treatment, mean ± S.D. of three separate experiments
Experimental: as §1

HCT-116 = experiment: In vitro anti-proliferative activity, MTT assay, HCT-116; format: cell-based, human; conditions: for IC50: Homo sapiens, HCT-116, MTT, 24 h treatment, mean ± S.D. of three separate experiments
Experimental: as §1

purified bovine tubulin = target: T1, purified bovine tubulin (Bos taurus, UniProt P81947+Q6B856); experiment: In vitro tubulin polymerization assay; format: biochemical; conditions: purified bovine tubulin 10 μM, 37 °C; read-out: IC50 Tubulin polymerization inhibition
T1 construct: purified bovine tubulin (10 μM); from tissue; host or cells: bovine
T1 sequence (Q6B856 whole entry): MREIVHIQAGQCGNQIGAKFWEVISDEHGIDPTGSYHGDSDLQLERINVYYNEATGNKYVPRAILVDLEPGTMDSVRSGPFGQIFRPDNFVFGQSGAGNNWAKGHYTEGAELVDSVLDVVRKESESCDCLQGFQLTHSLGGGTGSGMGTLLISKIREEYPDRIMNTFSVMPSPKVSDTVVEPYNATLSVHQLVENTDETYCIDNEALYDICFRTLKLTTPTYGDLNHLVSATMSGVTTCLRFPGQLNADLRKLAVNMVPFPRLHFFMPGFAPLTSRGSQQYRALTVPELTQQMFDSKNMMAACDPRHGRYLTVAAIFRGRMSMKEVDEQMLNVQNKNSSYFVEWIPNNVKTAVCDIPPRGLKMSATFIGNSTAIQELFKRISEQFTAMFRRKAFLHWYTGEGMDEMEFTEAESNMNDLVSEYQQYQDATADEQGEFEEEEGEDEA
T1 sequence (P81947 whole entry): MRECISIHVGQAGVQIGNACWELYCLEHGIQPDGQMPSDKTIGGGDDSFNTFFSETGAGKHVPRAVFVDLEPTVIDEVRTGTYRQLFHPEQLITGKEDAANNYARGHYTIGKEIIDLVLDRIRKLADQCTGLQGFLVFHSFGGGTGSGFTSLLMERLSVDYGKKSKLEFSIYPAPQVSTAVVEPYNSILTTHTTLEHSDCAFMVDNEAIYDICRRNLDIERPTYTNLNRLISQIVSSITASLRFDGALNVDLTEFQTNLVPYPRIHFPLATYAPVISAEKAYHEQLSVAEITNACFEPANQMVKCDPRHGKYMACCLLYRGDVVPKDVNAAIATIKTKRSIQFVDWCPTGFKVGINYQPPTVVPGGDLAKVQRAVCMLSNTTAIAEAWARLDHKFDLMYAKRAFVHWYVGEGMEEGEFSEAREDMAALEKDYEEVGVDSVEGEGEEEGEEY
Experimental: The inhibition assay on microtubule polymerization was evaluated turbidimetrically using a fluorescent plate reader.[52]

Compound | IC50 (MCF-7) [µM] | IC50 (HCT-116) [µM] | melting point [°C] | IC50 (purified bovine tubulin) [µM] | IC50 (HepG-2) [µM] | times as active as colchicine against MCF-7 (MCF-7; ratio of IC50 values) [times] | times as active as colchicine against HepG-2 (HepG-2; ratio of IC50 values) [times] | times as active as colchicine against HCT-116 (HCT-116; ratio of IC50 values) [times]
C/C(=N\NC1=N/C(=C/c2ccc(Cl)cc2)C(=O)S1)c1ccc(C)cc1 [Compound 4b, 4-((E)-4-Chlorobenzylidene)-2-(2-((E)-1-(p-tolyl)ethylidene)hydrazinyl) thiazol-5(4H)-one] | 22.4 ± 1 | 18.2 ± 1.3 | 266 to 268 |  | 11.14 ± 0.1 |  |  | 
COc1ccc(/C=C2/N=C(N/N=C(\C)c3ccc(C)cc3)SC2=O)cc1 [Compound 4a, 4-((E)-4-Methoxybenzylidene)-2-(2-((E)-1-(p-tolyl)ethylidene)hydrazinyl) thiazol-5(4H)-one] | > 50 | 45.6 ± 3.5 | 248 to 250 |  | 34 ± 30.9 |  |  | 
C/C(=N\NC(N)=S)c1cccs1 [Compound 7a, (E)-2-(1-(Thiophen-2-yl)ethylidene)hydrazine-1-carbothioamide] | > 50 | > 50 |  |  | > 50 |  |  | 
C/C(=N\NC1=N/C(=C/c2ccc(O)cc2O)C(=O)S1)c1ccc(C)cc1 [Compound 4f, 4-((E)-2,4-Dihydroxybenzylidene)-2-(2-((E)-1-(p-tolyl)ethylidene)hydrazinyl) thiazol-5(4H)-one] | 4.46 ± 0.1 | 5.66 ± 0.1 |  | 0.00933 ± 0.0003 | 2.89 ± 0.1 | 2.34 | 2.57 | 1.64
COc1ccc(/C=C2/N=C(N/N=C(\C)c3ccc(OC)c(OC)c3)SC2=O)cc1 [Compound 4g, 2-(2-((E)-1-(3,4-Dimethoxyphenyl)ethylidene)hydrazinyl)-4-((E)-4-methoxybenzylidene) thiazol-5(4H)-one] | 17.4 ± 0.5 | 12.9 ± 0.6 | 240 to 242 |  | 8.68 ± 0.1 |  |  | 
C/C(=N\NC(N)=S)c1ccc(C)cc1 [Compound 3a, (E)-2-(1-(p-Tolyl)ethylidene)hydrazine-1-carbothioamide] | > 50 | > 50 |  |  | > 50 |  |  | 
COc1ccc(/C=C2/N=C(N/N=C(\C)c3ccc(C)cc3)SC2=O)cc1OC [Compound 4e, 4-((E)-3,4-Dimethoxybenzylidene)-2-(2-((E)-1-(p-tolyl)ethylidene)hydrazinyl) thiazol-5(4H)-one] | 18.2 ± 0.5 | 13 ± 0.2 | 254 to 256 | 0.0474 ± 0.0018 | 12.44 ± 0.1 |  |  | 
COc1ccc(/C(C)=N/NC2=N/C(=C/c3ccc(O)cc3O)C(=O)S2)cc1OC [Compound 4k, 4-((E)-2,4-Dihydroxybenzylidene)-2-(2-((E)-1-(3,4-dimethoxyphenyl)ethylid-ene)hydrazinyl)thiazol-5(4H)-one] | 13.9 ± 0.5 | 11.7 ± 0.3 | > 300 | 0.05001 ± 0.0004 | 12.2 ± 0.4 |  |  | 
C/C(=N\NC1=N/C(=C/c2ccc(Cl)cc2Cl)C(=O)S1)c1ccc(C)cc1 [Compound 4d, 4-((E)-2,4-Dichlorobenzylidene)-2-(2-((E)-1-(p-tolyl)ethylidene)hydrazinyl) thiazol-5(4H)-one] | 14.8 ± 0.6 | 10.6 ± 0.4 | > 300 | 0.0197 ± 0.0008 | 6.6 ± 0.1 |  |  | 
C/C(=N\NC(N)=S)c1ccco1 [Compound 7b, (E)-2-(1-(Furan-2-yl)ethylidene)hydrazine-1-carbothioamide] | > 50 | > 50 |  |  | > 50 |  |  | 
C/C(=N\NC1=N/C(=C/c2ccc(O)cc2)C(=O)S1)c1ccc(C)cc1 [Compound 4c, 4-((E)-4-Hydroxybenzylidene)-2-(2-((E)-1-(p-tolyl)ethylidene)hydrazinyl) thiazol-5(4H)-one] | 41.8 ± 1.2 | 38.5 ± 2.5 | 272 to 274 |  | 35.2 ± 0.8 |  |  | 
COc1ccc(/C=C2/N=C(N/N=C(\C)c3ccc(OC)c(OC)c3)SC2=O)cc1OC [Compound 4j, 4-((E)-3,4-Dimethoxybenzylidene)-2-(2-((E)-1-(3,4-dimethoxyphenyl)ethylid-ene)hydrazinyl)thiazol-5(4H)-one] | 43.3 ± 1.8 | 22.9 ± 0.7 | 232 to 236 |  | 32.6 ± 0.9 |  |  | 
COc1ccc(/C(C)=N/NC2=N/C(=C/c3cccs3)C(=O)S2)cc1OC [Compound 5b, (E)-2-(2-((E)-1-(3,4-Dimethoxyphenyl)ethylidene)hydrazinyl)-4-(thiophen-2-ylmethylene)thiazol-5(4H)-one] | 21.8 ± 1 | 18.4 ± 0.2 | 208 to 210 |  | 17.5 ± 0.7 |  |  | 
COc1ccc(/C(C)=N/NC2=N/C(=C/c3ccc(O)cc3)C(=O)S2)cc1OC [Compound 4h, 2-(2-((E)-1-(3,4-Dimethoxyphenyl)ethylidene)hydrazinyl)-4-((E)-4-hydroxybenzylidene)thiazol-5(4H)-one] | 48.8 ± 1.4 | 41.8 ± 1.6 | 290 to 292 |  | 37.5 ± 0.8 |  |  | 
COc1ccc(/C(C)=N/NC2=N/C(=C/c3ccc(Cl)cc3Cl)C(=O)S2)cc1OC [Compound 4i, 4-((E)-2,4-Dichlorobenzylidene)-2-(2-((E)-1-(3,4-dimethoxyphenyl)ethylid-ene)hydrazineyl) thiazol-5(4H)-one] | 40.1 ± 1.9 | 40.5 ± 1.1 | > 300 |  | 31.9 ± 0.8 |  |  | 

Now from value to compound, other results behind:

IC50 (MCF-7) [µM] | IC50 (HCT-116) [µM] | melting point [°C] | IC50 (purified bovine tubulin) [µM] | Compound | IC50 (HepG-2) [µM] | times as active as colchicine against MCF-7 (MCF-7; ratio of IC50 values) [times] | times as active as colchicine against HepG-2 (HepG-2; ratio of IC50 values) [times] | times as active as colchicine against HCT-116 (HCT-116; ratio of IC50 values) [times]
9.15 ± 0.2 | 5.55 ± 0.1 | 240 to 242 | 0.0135 ± 0.0008 | COc1ccc(/C=C2/N=C(N/N=C(\C)c3ccco3)SC2=O)cc1OC [Compound 8k, 4-((E)-3,4-Dimethoxybenzylidene)-2-(2-((E)-1-(furan-2-yl)ethylidene)hydra-zinyl)thiazol-5(4H)-one] | 4.58 ± 0.1 |  |  | 
> 50 | > 50 | 203 to 205 |  | C/C(=N\NC1=N/C(=C/c2cccs2)C(=O)S1)c1ccco1 [Compound 9b, (E)-2-(2-((E)-1-(Furan-2-yl)ethylidene)hydrazinyl)-4-(thiophen-2-ylmethylene) thiazol-5(4H)-one] | 45.1 ± 0.7 |  |  | 
25.8 ± 0.6 | 34.7 ± 1 | 248 to 250 |  | COc1ccc(/C=C2/N=C(N/N=C(\C)c3cccs3)SC2=O)cc1OC [Compound 8e, 4-((E)-3,4-Dimethoxybenzylidene)-2-(2-((E)-1-(thiophen-2-yl)ethylidene) hydrazinyl) thiazol-5(4H)-one] | 27.8 ± 0.5 |  |  | 
33.6 ± 0.9 | 24.2 ± 0.7 | 214 to 216 | 0.0391 ± 0.001 | C/C(=N\NC1=N/C(=C/c2cccs2)C(=O)S1)c1cccs1 [Compound 9a, (E)-2-(2-((E)-1-(Thiophen-2-yl)ethylidene)hydrazinyl)-4-(thiophen-2-ylmethylene)thiazol-5(4H)-one] | 21.9 ± 0.9 |  |  | 
> 50 | 48.6 ± 1.8 | 274 to 276 |  | C/C(=N\NC1=N/C(=C/c2ccc(Cl)cc2Cl)C(=O)S1)c1cccs1 [Compound 8d, 4-((E)-2,4-Dichlorobenzylidene)-2-(2-((E)-1-(thiophen-2-yl)ethylidene) hydrazinyl)thiazol-5(4H)-one] | 45.3 ± 1.2 |  |  | 
19 ± 0.5 | 17.2 ± 0.9 | 178 to 180 |  | C/C(=N\NC1=N/C(=C/c2ccc(O)cc2)C(=O)S1)c1cccs1 [Compound 8c, 4-((E)-4-Hydroxybenzylidene)-2-(2-((E)-1-(thiophen-2-yl)ethylidene)hydra-zinyl)thiazol-5(4H)-one] | 12.2 ± 0.3 |  |  | 
> 50 | > 50 | 264 to 266 |  | C/C(=N\NC1=N/C(=C/c2ccc(Cl)cc2Cl)C(=O)S1)c1ccco1 [Compound 8j, 4-((E)-2,4-Dichlorobenzylidene)-2-(2-((E)-1-(furan-2-yl)ethylidene) hydrazinyl) thiazol-5(4H)-one] | > 50 |  |  | 
18.2 ± 0.6 | 18.7 ± 0.6 | 252 to 254 |  | C/C(=N\NC1=N/C(=C/c2ccc(Cl)cc2)C(=O)S1)c1cccs1 [Compound 8b, 4-((E)-4-Chlorobenzylidene)-2-(2-((E)-1-(thiophen-2-yl)ethylidene)hydra-zinyl)thiazol-5(4H)-one] | 19.5 ± 0.7 |  |  | 
9.29 ± 0.1 | 6.59 ± 0.1 | 288 to 290 | 0.0142 ± 0.0003 | COc1ccc(/C=C2/N=C(N/N=C(\C)c3ccco3)SC2=O)cc1 [Compound 8g, 2-(2-((E)-1-(Furan-2-yl)ethylidene)hydrazinyl)-4-((E)-4-methoxybenzylid-ene)thiazol-5(4H)-one] | 4.69 ± 0.1 |  |  | 
7.65 ± 0.2 | 8.96 ± 0.2 | > 300 | 0.0116 ± 0.0002 | C/C(=N\NC1=N/C(=C/c2ccc(O)cc2O)C(=O)S1)c1cccs1 [Compound 8f, 4-((E)-2,4-Dihydroxybenzylidene)-2-(2-((E)-1-(thiophen-2-yl)ethylidene) hydrazinyl) thiazol-5(4H)-one] | 3.23 ± 0.1 |  |  | 
32.1 ± 1.2 | 35.5 ± 2 | 243 to 245 |  | COc1ccc(/C=C2/N=C(N/N=C(\C)c3cccs3)SC2=O)cc1 [Compound 8a, 4-((E)-4-Methoxybenzylidene)-2-(2-((E)-1-(thiophen-2-yl)ethylidene)hydra-zinyl)thiazol-5(4H)-one] | 26.6 ± 0.9 |  |  | 
